According to article PMC11052825 (Clinical Pharmacokinetics, 2024):
Where two headings read alike, the source gives them in different places.

Tests used:
[1] = Risk categorization of statins for coadministration with encorafenib; settings: qualitative, from metabolic and transporter profile
CYP2B6 [2] = format: in vivo, Human
[3] = Phase 1 DDI study: plasma PK of encorafenib; format: in vivo; settings: human, oral, GM (CV%); for AUC(0-t): AUClast
[4] = tested on: OATP1B1, OATP1B3, and BCRP; format: in vivo, Human; settings: phase 1 study and exploratory CP-I analysis
CYP2B6 [5] = settings: in vitro; cited from earlier work
CYP2B6 [6] = settings: in vitro hepatocyte assay, clinically relevant plasma concentrations; cited from earlier work
OATP1B1/3 = settings: in vitro, potent inhibitor; cited from earlier work
BCRP [7] = settings: in vitro, weak inhibitor; cited from earlier work
[8] = cited from earlier work
CYP3A4 = settings: cited from earlier work
CYP2C19 = settings: cited from earlier work
CYP2D6 = settings: cited from earlier work
[9] = format: in vivo, Human; settings: single oral administrations on days −7, 1 and 14
BCRP [10] = settings: cited from earlier work
CYP2B6 and CYP3A4 = settings: strong inducer of CYP2B6 and CYP3A4; cited from earlier work
OATP1B1 [11] = settings: strong inhibitor of OATP1B1; cited from earlier work
OATP1B1 [12] = target: T1, OATP1B1 (Homo sapiens, UniProt Q9Y6L6); assay: Maximum fold change of plasma CP-I in phase 3 safety lead-in participants; format: in vivo; settings: SLI phase, encorafenib 300 mg QD + cetuximab
T1 sequence (Q9Y6L6 1-691): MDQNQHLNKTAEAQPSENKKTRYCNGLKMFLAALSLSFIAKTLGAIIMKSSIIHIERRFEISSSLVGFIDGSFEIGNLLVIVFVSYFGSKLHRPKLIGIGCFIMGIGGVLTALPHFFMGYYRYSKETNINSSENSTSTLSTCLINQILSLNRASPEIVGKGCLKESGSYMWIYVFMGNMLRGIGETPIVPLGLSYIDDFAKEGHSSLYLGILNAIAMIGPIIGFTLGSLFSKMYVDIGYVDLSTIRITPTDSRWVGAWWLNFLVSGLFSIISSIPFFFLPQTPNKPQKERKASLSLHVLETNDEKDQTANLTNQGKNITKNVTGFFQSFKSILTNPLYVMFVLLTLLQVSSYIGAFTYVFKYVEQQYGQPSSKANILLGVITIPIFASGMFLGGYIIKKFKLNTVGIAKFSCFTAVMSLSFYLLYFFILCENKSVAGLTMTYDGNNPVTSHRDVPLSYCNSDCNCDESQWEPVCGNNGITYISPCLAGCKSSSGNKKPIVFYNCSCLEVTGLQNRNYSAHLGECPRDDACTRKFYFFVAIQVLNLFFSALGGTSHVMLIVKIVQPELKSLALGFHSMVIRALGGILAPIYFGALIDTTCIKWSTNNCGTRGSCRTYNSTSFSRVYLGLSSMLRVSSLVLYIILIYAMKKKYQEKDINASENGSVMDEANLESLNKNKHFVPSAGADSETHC

Molecule: CC(C)c1c(C(=O)Nc2ccccc2)c(-c2ccccc2)c(-c2ccc(F)cc2)n1CC[C@@H](O)C[C@@H](O)CC(=O)O [Atorvastatin]
- Risk category following coadministration with encorafenib [1]: at risk of loss of efficacy

Molecule: CC(NC(C)(C)C)C(=O)c1cccc(Cl)c1 (centres unmarked) [Bupropion, bupropion]
- Decrease in AUClast compared with administration on its own (CYP2B6 [2]; following repeated doses of encorafenib and binimetinib): 26%
- Decrease in AUClast compared with administration on its own (CYP2B6 [2]; following single dose of encorafenib and binimetinib): 23%

Molecule: COC(=O)N[C@@H](C)CNc1nccc(-c2cn(C(C)C)nc2-c2cc(Cl)cc(NS(C)(=O)=O)c2F)n1 [Encorafenib, encorafenib]
- AUC(0-t) ([3]; encorafenib single dose (day 1)): 25900 ng·h/mL
- AUC(0-t) ([3]; encorafenib steady state (day 14)): 13100 ng·h/mL
- Cmax ([3]; Cmax, encorafenib steady state (day 14), n=10): 2940 ng/mL
- Clinical BCRP inhibition (conclusion) [4]: likely an inhibitor of BCRP
- Clinical OATP1B1/3 inhibition (conclusion) [4]: may also inhibit OATP1B1/3 to a lesser extent
- Clinical CYP2B6 inhibition (conclusion) (CYP2B6 [2]; bupropion probe, after a single dose of encorafenib): does not act as an inhibitor of CYP2B6
- Clinical CYP2B6 induction (conclusion) (CYP2B6 [2]; bupropion probe, steady-state encorafenib): likely not a clinically relevant inducer of CYP2B6
- Unbound R1 value (reversible inhibition) (CYP2B6 [5]): 3.1
- R3 values (induction) (CYP2B6 [6]): < 0.9
- R values (inhibition) (OATP1B1/3): ≥ 1.1
- R values (inhibition) (BCRP [7]): ≥ 1.1
- Steady-state exposure lower compared with exposure following a single dose ([8]; autoinduction of CYP3A4): approximately 50%
- Estimated bioavailability ([8]; oral, no reference given): at least 86%
- Time to peak concentrations ([8]; oral, no reference given): ≤ 2 h
- Share of metabolism (CYP3A4): 83%
- Share of metabolism (CYP2C19): 16%
- Share of metabolism (CYP2D6): 1%

Molecule: C[C@H]1NC(C)(C)CO[C@]1(O)c1cccc(Cl)c1 [Hydroxybupropion, hydroxybupropion]
- Change in AUClast (CYP2B6 [2]; following a single dose of encorafenib and binimetinib): not changed
- Increase in AUClast (CYP2B6 [2]; with repeated doses of encorafenib and binimetinib): 48%

Molecule: CC[C@H](C)C(=O)O[C@H]1C[C@@H](C)C=C2C=C[C@H](C)[C@H](CC[C@@H]3C[C@@H](O)CC(=O)O3)[C@H]21 [Lovastatin]
- Risk category following coadministration with encorafenib [1]: at risk of loss of efficacy

Molecule: O=C(O)C[C@H](O)C[C@H](O)/C=C/c1c(C2CC2)nc2ccccc2c1-c1ccc(F)cc1 [Pitavastatin]
- Risk category following coadministration with encorafenib [1]: highest risk of increased exposure

Molecule: CC[C@H](C)C(=O)O[C@H]1C[C@H](O)C=C2C=C[C@H](C)[C@H](CC[C@@H](O)C[C@@H](O)CC(=O)O)[C@H]21 [Pravastatin]
- Risk category following coadministration with encorafenib [1]: least likely to be affected

Molecule: CC(C)c1nc(N(C)S(C)(=O)=O)nc(-c2ccc(F)cc2)c1/C=C/[C@@H](O)C[C@@H](O)CC(=O)O [Rosuvastatin, rosuvastatin]
- Tmax [9]: 2 h
- Risk category following coadministration with encorafenib [1]: highest risk of increased exposure
- Theoretical maximum fold-change in exposure based on BCRP alone (BCRP [10]): 2 fold

Molecule: NC(=O)N1c2ccccc2C=Cc2ccccc21 [carbamazepine]
- Effect of treatment on bupropion and hydroxybupropion (CYP2B6 and CYP3A4): substantial decrease in bupropion and increase in hydroxybupropion

Molecule: CO[C@H]1/C=C/O[C@@]2(C)Oc3c(C)c(O)c4c(O)c(c(/C=N/N5CCN(C)CC5)c(O)c4c3C2=O)NC(=O)/C(C)=C\C=C\[C@H](C)[C@H](O)[C@@H](C)[C@@H](O)[C@@H](C)[C@H](OC(C)=O)[C@@H]1C [rifampin]
- Plasma CP-I maximum fold-change (OATP1B1 [11]): approximately 6 fold

Molecule: Coproporphyrin I [CP-I]
- Observed maximum fold change in CP-I concentrations (OATP1B1 [12]; C1D1 (single dose), CRC patients): 1.4 fold
- Observed maximum fold change in CP-I concentrations (OATP1B1 [12]; C2D1): 1.2 fold
